Source: patent US11806313B2, “Abiraterone acetate containing composition and application thereof” (Hunan Huize Biopharma S & T Co., Ltd, priority 2021, dated 2023)

Legend:
[1] = format: physicochemical
Excerpt: Therefore, the self-microemulsion system of the present invention can choose the mixture of glycerol monolinoleate (CC) and medium chain triglyceride (MCT) as the oil phase. […] Accordingly, when glycerol monolinoleate and medium chain triglyceride are used in combination as the oil phase, in order to ensure a larger drug loading capacity, the amount of CC in the oil phase should be as much as possible, while the amount of MCT should be as little as possible.
When PEG-40 hydrogenated castor oil (RH40) and 2-(2-ethoxyethoxy)ethanol (HP) are used in combination as the emulsion phase, in order to ensure the emulsification effect of the self-microemulsion system and to ensure a large drug loading capacity, one should increase the amount of RH40 in the emulsion phase while also reduce the amount of HP as much as possible.

[2] = cited from earlier work
[3] = cited from earlier work; remark: listed apart in the source
[4] = high-fat diet (57% fat, 825 calories)
[5] = low-fat diet (7% fat, 300 calories)

solubility in 2-(2-ethoxyethoxy)ethanol (HP) [1]: about 69.0 mg/g
solubility in PEG-40 hydrogenated castor oil (RH40) [1]: about 24.7 mg/g
solubility in glycerol monolinoleate (CC) [1]: about 62.9 mg/g
solubility in medium chain triglyceride (MCT) [1]: about 28.4 mg/g
Structure (SMILES): CC(=O)O[C@H]1CC[C@@]2(C)C(=CC[C@@H]3[C@@H]2CC[C@]2(C)C(c4cccnc4)=CC[C@@H]32)C1 [abiraterone acetate, (3β)-17-(3-pyridyl)androsta-5,16-dien-3-yl acetate]
solubility in water [2]: less than 0.01 mg/ml
increase of AUC0-∞ with food [3, 4]: ~10 times
increase of Cmax with food [3, 4]: about 17 times
increase of AUC0-∞ of abiraterone with food [3, 5]: ~5 times
increase of Cmax of abiraterone with food [3, 5]: about 7 times
